This is an account of results in US20250388605A1, “HETEROBIFUNCTIONAL COMPOUNDS AND METHODS OF TREATING DISEASE” (Halda Therapeutics OpCo, Inc., priority 2022, published 2025).

pKd: −log10 of the molar value.

One may read the pKd as −log10 of the Kd, conventionally taken in molar units. In general, GI50 refers to the concentration giving 50% growth inhibition. Lower therefore signals more potent growth inhibition.

One experiment deals with T1, BRD4-BD2 (Homo sapiens, UniProt O60885).
T1 construct: made in house; host or cells: T7 phage grown in an E. coli host derived from the BL21 strain
Briefly: Binding affinity to BRD4-BD2 (bromoKdELECT assay). Particulars: 11-point 3-fold dilution series.

For experiment [1], the system named is T-Rex 293 cell line SC3 cells having increased expression of androgen receptor protein due to exposure to doxycycline. Briefly: Cellular growth inhibition, T-Rex 293 SC3 cells with doxycycline (increased androgen receptor expression), CellTiter-Glo. Format: cell-based. Particulars: T-Rex 293 SC3 cells with 10 ng/mL doxycycline (increased androgen receptor expression), 72 hours, CellTiter-Glo 2.0. A digest of the protocol: (§1)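 Doxycycline (10 ng/mL) was either included or omitted to toggle wild-type androgen receptor expression in SC3 cells, a T-Rex 293 clone, grown in stripped-serum, phenol red-free medium. After 72 hours with compound, viable cells were quantified by CellTiter-Glo 2.0.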

The subject of experiment [2] is T-Rex 293 cell line SC3 cells lacking increased expression of androgen receptor protein. The experiment can be described thus: Cellular growth inhibition, T-Rex 293 SC3 cells without doxycycline (no increased androgen receptor expression), CellTiter-Glo. To be noted: T-Rex 293 SC3 cells not exposed to doxycycline (no increased androgen receptor expression), 72 hours. Format: cell-based. The gist of the method:
as §1
(ATP-based viability assays read luminescence as a measure of living cells.)

The test system of another experiment is VCaP cells. The experiment can be described thus: Cellular growth inhibition assay for VCaP cells, CellTiter-Glo. Format: cell-based, human. To be noted: 72 hours. A digest of the protocol: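 GI50 values come from four-parameter curve fits of luminescence data normalized to a zero baseline. Compound, in medium with 0.5% DMSO, was added one day after plating and left for 72 h before CellTiter-Glo 2.0 addition.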

The compound `Cn1cc(-c2cc(C(C)(C)O)ccc2Oc2cccc(CCOC3CCN(c4ncc(C(=O)N[C@H]5C(C)(C)[C@H](Oc6ccc(C#N)c(Cl)c6)C5(C)C)cn4)CC3)c2)c2cc[nH]c2c1=O` [Compound I-193] showed a negative logarithm of the Kd (pKd) at BRD4-BD2 above 7.30. In addition, the GI50 (in experiment [1]; in experiment [2]; in the experiment on VCaP cells) was below 500 nM each time.
Take `Cc1ccc(CCCOC2CCN(c3ncc(C(=O)N[C@H]4C(C)(C)[C@H](Oc5ccc(C#N)c(Cl)c5)C4(C)C)cn3)CC2)cc1Oc1ccc(C(C)(C)O)cc1-c1cn(C)c(=O)c2[nH]ccc12` [Compound I-192]: the pKd at BRD4-BD2 was 6.30 to 7.30. Besides, the GI50 was below 500 nM in experiment [1], 500 to 1500 nM in experiment [2] and 500 to 1500 nM in the experiment with VCaP cells (Homo sapiens).
Consider `CCS(=O)(=O)c1ccc(OC(CCCCN2CCN(c3ncc(C(=O)NC4C(C)(C)C(Oc5ccc(C#N)c(Cl)c5)C4(C)C)cn3)CC2)C2CC2)c(-c2cn(C)c(=O)c3[nH]ccc23)c1` (stereo not shown) [Compound I-223, N-[3-(3-chloro-4-cyano-phenoxy)-2,2,4,4-tetramethyl-cyclobutyl]-2-[4-[5-cyclopropyl-5-[4-ethylsulfonyl-2-(6-methyl-7-oxo-1H-pyrrolo[2,3-c]pyridin-4-yl)phenoxy]pentyl]piperazin-1-yl]pyrimidine-5-carboxamide], for which the pKd on BRD4-BD2 is above 7.30. The GI50 (in experiment [1]; in experiment [2]; in the experiment on VCaP cells (Homo sapiens)) was below 500 nM each time.
Consider `CCS(=O)(=O)Nc1ccc(Oc2cccc(OCCOC3CCN(c4ncc(C(=O)N[C@H]5C(C)(C)[C@H](Oc6ccc(C#N)c(Cl)c6)C5(C)C)cn4)CC3)c2)c(-c2cn(C)c(=O)c3c2ccn3C)c1` [Compound I-121], for which, at BRD4-BD2, the pKd was below 5.60. Besides, the concentration for 50% growth inhibition (GI50) was below 500 nM in experiment [1], above 3000 nM in experiment [2] and below 500 nM in the experiment with VCaP cells (Homo sapiens).
Regarding `Cn1cc(-c2ccccc2Oc2cccc(N3CC(N4CCN(c5ncc(C(=O)N[C@H]6C(C)(C)[C@H](Oc7ccc(C#N)c(Cl)c7)C6(C)C)cn5)CC4)C3)c2)c2cc[nH]c2c1=O` [Compound I-90, N-((1r, 3r)-3-(3-chloro-4-cyanophenoxy)-2,2,4,4-tetramethylcyclobutyl)-2-(4-(1-(3-(2-(6-methyl-7-oxo-6,7-dihydro-1H-pyrrolo[2,3-c]pyridin-4-yl)phenoxy)phenyl)azetidin-3-yl)piperazin-1-yl)pyrimidine-5-carboxamide], the pKd at BRD4-BD2 was below 5.60. Moreover, the figures for the GI50 (in experiment [1]; in experiment [2]; in the experiment on VCaP cells (Homo sapiens)) were below 500 nM, above 3000 nM and below 500 nM, respectively.
Turning to `CCS(=O)(=O)Nc1ccc(Oc2cccc(N3CC(N4CCN(c5ncc(C(=O)N[C@H]6C(C)(C)[C@H](Oc7ccc(C#N)c(Cl)c7)C6(C)C)cn5)CC4)C3)c2)c(-c2cn(C)c(=O)c3[nH]ccc23)c1` [Compound I-75], at BRD4-BD2, the pKd is 6.30 to 7.30. Besides, the GI50 (in experiment [1]; in experiment [2]; with VCaP cells (Homo sapiens)) was below 500 nM each time.
Compound `Cn1cc(-c2cc(C(C)(C)O)ccc2Oc2cccc(N3CC(N4CCN(c5ncc(C(=O)N[C@H]6C(C)(C)[C@H](Oc7ccc(C#N)c(Cl)c7)C6(C)C)cn5)CC4)C3)c2F)c2cc[nH]c2c1=O` [Compound I-92, N-((1r, 3r)-3-(3-chloro-4-cyanophenoxy)-2,2,4,4-tetramethylcyclobutyl)-2-(4-(1-(2-fluoro-3-(4-(2-hydroxypropan-2-yl)-2-(6-methyl-7-oxo-6,7-dihydro-1H-pyrrolo[2,3-c]pyridin-4-yl)phenoxy)phenyl)azetidin-3-yl)piperazin-1-yl)pyrimidine-5-carboxamide] had a pKd at BRD4-BD2 of 6.30 to 7.30. Further, the GI50 (in experiment [1]; in experiment [2]; in the experiment with VCaP cells (Homo sapiens)) was below 500 nM each time.
Regarding `Cn1cc(-c2cc(C(C)(C)O)ccc2Oc2cccc(CCCN3CCN(c4ncc(C(=O)N[C@H]5C(C)(C)[C@H](Oc6ccc(C#N)c(Cl)c6)C5(C)C)cn4)CC3)c2F)c2cc[nH]c2c1=O` [Compound I-143], on BRD4-BD2, the pKd was above 7.30. Moreover, the GI50 (in experiment [1]; in experiment [2]; in the experiment with VCaP cells (Homo sapiens)) was below 500 nM each time.
On to `Cn1cc(-c2cc(C(C)(C)O)ccc2Oc2cccc(OCCN3CCN(c4ncc(C(=O)N[C@H]5C(C)(C)[C@H](Oc6ccc(C#N)c(Cl)c6)C5(C)C)cn4)CC3)c2F)c2cc[nH]c2c1=O` [Compound I-99], for which the pKd on BRD4-BD2 was above 7.30. Also, the GI50 (in experiment [1]; in experiment [2]; in the experiment with VCaP cells (Homo sapiens)) was below 500 nM throughout.
Turning to `CN(c1ccc(Oc2ccc(C(C)(C)O)cc2-c2cn(C)c(=O)c3[nH]ccc23)cc1)C1CCN(c2ncc(C(=O)N[C@H]3C(C)(C)[C@H](Oc4ccc(C#N)c(Cl)c4)C3(C)C)cn2)CC1` [Compound I-197], the pKd at BRD4-BD2 was above 7.30. Further, the GI50 (in experiment [1]; in experiment [2]; in the experiment on VCaP cells (Homo sapiens)) was below 500 nM throughout.
For the compound `Cn1cc(-c2cc(C(C)(C)O)ccc2Oc2cccc(OCCC3CCN(c4ncc(C(=O)N[C@H]5C(C)(C)[C@H](Oc6ccc(C#N)c(Cl)c6)C5(C)C)cn4)CC3)c2)c2cc[nH]c2c1=O` [Compound I-156], the pKd at BRD4-BD2 was 6.30 to 7.30. The GI50 is below 500 nM in experiment [1], above 3000 nM in experiment [2] and above 3000 nM with VCaP cells.
For the compound `CCS(=O)(=O)Nc1ccc(Oc2cccc(N3CCN(C4CN(c5ncc(C(=O)N[C@H]6C(C)(C)[C@H](Oc7ccc(C#N)c(Cl)c7)C6(C)C)cn5)C4)CC3)c2)c(-c2cn(C)c(=O)c3[nH]ccc23)c1` [Compound I-126], at BRD4-BD2, the pKd is above 7.30. Further, the GI50 in experiment [1] is below 500 nM; in experiment [2], above 3000 nM; in the experiment on VCaP cells (Homo sapiens), below 500 nM.
`CCS(=O)(=O)Nc1ccc(Oc2cccc(OCCOC3CCN(c4ncc(C(=O)N[C@H]5C(C)(C)[C@H](Oc6ccc(C#N)c(Cl)c6)C5(C)C)cn4)CC3)n2)c(-c2cn(C)c(=O)c3[nH]ccc23)c1` [Compound I-47, N-((1r, 3r)-3-(3-chloro-4-cyanophenoxy)-2,2,4,4-tetra-methylcyclobutyl)-2-(4-(2-((6-(4-(ethylsulfonamido)-2-(6-methyl-7-oxo-6,7-dihydro-1H-pyrrolo[2,3-c]pyridin-4-yl)phenoxy)pyridin-2-yl)oxy)ethoxy)piperidin-1-yl)pyrimidine-5-carboxamide] had a pKd on BRD4-BD2 above 7.30. The GI50 (in experiment [1]; in experiment [2]; with VCaP cells (Homo sapiens)) was below 500 nM throughout.
`Cn1cc(-c2ccccc2Oc2cccc(OCCOC3CCN(c4ncc(C(=O)N[C@H]5C(C)(C)[C@H](Oc6ccc(C#N)c(Cl)c6)C5(C)C)cn4)CC3)c2)c2ccn(C)c2c1=O` [Compound I-137]: the pKd on BRD4-BD2 is below 5.60. Moreover, the GI50 was below 500 nM in experiment [1], below 500 nM in experiment [2] and above 3000 nM in the experiment with VCaP cells (Homo sapiens).
As to `Cn1cc(-c2cc(C(C)(C)O)ccc2Oc2cccc(OCCN3CCN(c4ncc(C(=O)N[C@H]5C(C)(C)[C@H](Oc6ccc(C#N)c(Cl)c6)C5(C)C)cn4)CC3)c2)c2cc[nH]c2c1=O` [Compound I-96], the pKd on BRD4-BD2 is 6.30 to 7.30. The GI50 (in experiment [1]; in experiment [2]; in the experiment with VCaP cells (Homo sapiens)) was below 500 nM throughout.
On to `Cn1cc(-c2cc(C(C)(C)O)ccc2Oc2cccc(N3CC(OC4CCN(c5ncc(C(=O)N[C@H]6C(C)(C)[C@H](Oc7ccc(C#N)c(Cl)c7)C6(C)C)cn5)CC4)C3)c2F)c2cc[nH]c2c1=O` [Compound I-190], for which, at BRD4-BD2, the pKd was 6.30 to 7.30. The figures for the GI50 (in experiment [1]; in experiment [2]; in the experiment with VCaP cells) were below 500 nM, 500 to 1500 nM and below 500 nM, respectively.
